Blank lines part the entries; values can stand above or below the compound they belong to.
How the values were obtained:
[1] = target: T1, flag-tagged human GST-Omega-2 (Homo sapiens, UniProt Q9H4Y5); assay: Competitive binding assay: incorporation of [14C]Compound 2 into GST-Omega-2 in infected SF9 cells; parameters: expressed in transfected cells; host or cells: SF9 insect cells, baculovirus infection (pFASTBAC-flag shuttle vector); conditions: 30 min preincubation, then 2 µM [14C]Compound 2 for 60 min, relative to control cultures
T1 sequence (Q9H4Y5 1-242 limits assumed): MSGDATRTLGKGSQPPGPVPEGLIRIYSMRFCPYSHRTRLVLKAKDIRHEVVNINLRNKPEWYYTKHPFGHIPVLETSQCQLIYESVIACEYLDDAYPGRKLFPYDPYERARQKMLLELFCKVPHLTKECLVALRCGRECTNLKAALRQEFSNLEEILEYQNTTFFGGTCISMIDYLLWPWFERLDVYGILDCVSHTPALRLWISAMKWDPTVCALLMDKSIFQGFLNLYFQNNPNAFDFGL
Method: Insect cells (SF9) were infected with a baculovirus construct encoding flag-tagged human GST-Omega-2 (see Example 5) and seeded into individual 10 cm dishes. After 48 hr of infection, media were removed and replaced with fresh medium (6 ml) containing 100, 200 or 400 μM Compound 4, 10 μM Compound 2, or neither compound. The cultures were incubated for 30 min at room temperature after which 2 µM [^14C]Compound 2 was introduced and the cultures were incubated for 60 min at room temperature. The cells then were harvested by centrifugation, washed with PBS to remove unbound radioactivity, and solubilized by detergent extraction. GST-Omega-2 was recovered by immunoprecipitation with anti-Flag M2 antibody, and the resulting immunoprecipitates were fractionated by SDS/PAGE; the dried gel subsequently was analyzed by phosphorimager analysis.

[2] = target: T1, flag-tagged human GST-Omega-2; assay: Diarylsulfonylurea (Compound 2) affinity column binding of GST-Omega-2 from HEK293 lysate, Western detection; parameters: expressed in transfected cells; conditions: 5 mM in buffer; Western blot of column fractions
Text: Human embryonic kidney (HEK293) cells were transfected with a pcDNA3.1 mammalian expression vector encoding FLAG-tagged human GST-Omega-2. Stable transfectants isolated by growth in the presence of G418 were subcloned and a high expressing colony was identified. Four confluent 10 cm dishes of this cell line were established after which the cells were harvested and then disrupted by nitrogen cavitation. The resulting cell lysate was clarified by centrifugation and the supernatant fraction was recovered and applied to an affinity column (1 ml) composed of 1-(1,2,3,5,6,7-Hexahydro-s-indacen-4-yl)-3-[2-fluoro-5-oxiranylbenzenesulfonyl]-urea (hereinafter referred to as Compound 2 as per U.S. Patent Publication 2002-0034764) attached to Thiolpropyl-Sepharose. Compound 2 is a diarylsulfonylurea that contains an epoxide group which can react to form a covalent linkage with Thiolpropyl-Sepharose. In some cases, the cell extract was applied to the column in a buffer containing 5 mM of a competitive inhibitor, 1-(1,2,3,5,6,7-Hexahydro-s-indacen-4-yl)-3-[4-(1-hydroxy-1-methylethyl)-furan-2-sulfonyl]-urea (hereinafter referred to as Compound 4 as per the '372 application). The column was washed with buffer then eluted with a denaturing detergent, sodium dodecyl sulfate (SDS). Individual 1 ml fractions were collected and aliquots of each were fractionated by SDS/PAGE. […]

[3] = target: T1, flag-tagged human GST-Omega-2; assay: Labeling of GST-Omega-2 by [14C]Compound 2 in infected SF9 cells, SDS/PAGE autoradiography; assay type: binding; parameters: expressed in transfected cells; host or cells: SF9 insect cells, baculovirus infection (pFASTBAC-flag shuttle vector); conditions: 60 min
Method: (§1) Insect cells (SF9) were infected with a baculovirus construct encoding flag-tagged human GST-Omega-2 (see Example 5) and seeded into individual 10 cm dishes. For comparison, SF9 cells also were infected with a baculovirus construct encoding IKK[…] (I-κB kinase-γ/NF-κB essential modulator (NEMO)). After 48 hr of infection, media were removed and replaced with fresh medium (6 ml) containing from 0.01 to 10 μM of [^14C]Compound 2. Cells were incubated with the radiolabeled diarylsulfonylurea for 60 min (at room temperature) and then collected by centrifugation and washed to remove unbound test agent. Each cell pellet then was suspended in 5 ml of PBS and divided into 2 fractions. Cells within one of these fractions (⅕ of the total) were collected by centrifugation and suspended in 150 µl of SDS/PAGE disaggregation buffer. Cells within the other fraction (⅘ of the total) were collected by centrifugation, solubilized by detergent extraction, and recombinant GST-Omega-2 was recovered by immunoprecipitation with the anti-Flag M2 antibody. Both the total cell lysates and the immunoprecipitates were fractionated by SDS/PAGE and the dried gels were analyzed by autoradiography.

[4] = target: T2, flag-tagged murine GST-Omega-2 (Mus musculus, UniProt Q8K2Q2); assay: Labeling of murine GST-Omega-2 by [14C]Compound 2 in infected SF9 cells, SDS/PAGE autoradiography; assay type: binding; conditions: 60 min
T2 construct: expressed in transfected cells; host or cells: SF9 insect cells, baculovirus infection (pFASTBAC-flag shuttle vector)
T2 sequence (Q8K2Q2 1-248): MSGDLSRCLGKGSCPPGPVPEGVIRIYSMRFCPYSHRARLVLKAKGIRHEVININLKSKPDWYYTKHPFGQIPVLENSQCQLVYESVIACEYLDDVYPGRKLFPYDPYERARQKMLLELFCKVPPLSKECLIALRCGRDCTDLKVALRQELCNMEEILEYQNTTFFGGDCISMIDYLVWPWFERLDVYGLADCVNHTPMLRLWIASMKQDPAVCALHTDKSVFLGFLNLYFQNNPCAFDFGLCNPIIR
Method: as §1, with “murine” for “human”, “(IkappaB kinase gamma).” for “(I-κB kinase-γ/NF-κB essential modulator (NEMO)).”, “μM” for “μM of”

[5] = 1 µM, room temperature, versus IKK-expressing control cells
[6] = 10 µM (highest test concentration), control and GST-Omega-2-expressing cells

inhibition of incorporation of [14C]Compound 2 into GST-Omega-2 ([1]; 10 µM unlabeled compound): 90%
SMILES: O=C(Nc1c2c(cc3c1CCC3)CCC2)NS(=O)(=O)c1cc(C2CO2)ccc1F (centres unmarked) [Compound 2, 1-(1,2,3,5,6,7-Hexahydro-s-indacen-4-yl)-3-[2-fluoro-5-oxiranylbenzenesulfonyl]-urea]

inhibition of incorporation of [14C]Compound 2 into GST-Omega-2 ([1]; 100 µM test compound): 63%
inhibition of incorporation of [14C]Compound 2 into GST-Omega-2 ([1]; 200 µM test compound): 73%
inhibition of incorporation of [14C]Compound 2 into GST-Omega-2 ([1]; 400 µM test compound): 84%
SMILES: CC(C)(O)c1coc(S(=O)(=O)NC(=O)Nc2c3c(cc4c2CCC4)CCC3)c1 [Compound 4, 1-(1,2,3,5,6,7-Hexahydro-s-indacen-4-yl)-3-[4-(1-hydroxy-1-methylethyl)-furan-2-sulfonyl]-urea]
competition with binding of GST-Omega-2 to the diarylsulfonylurea affinity column [2]: competed with the specific binding of GST-Omega-2 to the diarylsulfonylurea affinity column

SMILES: O=C(Nc1c2c(cc3c1CCC3)CCC2)NS(=O)(=O)c1cc(C2CO2)ccc1F (centres unmarked) [[^14C]Compound 2]
polypeptides labeled in infected cells [3, 5]: only the polypeptide migrating as GST-Omega-2 appeared labeled
polypeptides labeled in infected cells [3, 6]: appeared to incorporate into several polypeptides
incorporation of radioactivity into anti-flag immunoprecipitated GST-Omega-2 ([3]; 0.01 to 10 μM): dose-dependent increase in the incorporation of radioactivity into the immunoprecipitated protein
polypeptides labeled in infected cells [4, 5]: only the polypeptide migrating as GST-Omega-2 appeared labeled
polypeptides labeled in infected cells [4, 6]: appeared to incorporate into several polypeptides
incorporation of radioactivity into anti-flag immunoprecipitated GST-Omega-2 ([4]; 0.01 to 10 μM): dose-dependent increase in the incorporation of radioactivity into the immunoprecipitated protein
